Test results from US5677419A, “Cyclic vasoactive peptide analogs” (Hoffmann-La Roche Inc., priority 1994, dated 1997).
pEC50: −log10 of the molar value. Where a SMILES comes first, the peptide text is derived from it. Bridges are numbered along the chain shown (N, C = ends). [ ]: non-standard residue; d: D form. Phe(4-F) = N[C@@H](Cc1ccc(F)cc1)C(=O)O; 1Nal = N[C@@H](Cc1cccc2ccccc12)C(=O)O; 2Nal = N[C@@H](Cc1ccc2ccccc2c1)C(=O)O; NMeA = CN[C@@H](C)C(=O)O; Nle = CCCC[C@H](N)C(=O)O

What was measured:
[1] = system: guinea pig tracheal smooth muscle; assay: Tracheal relaxant activity of VIP analogs on isolated guinea pig tracheal rings; type: cell-based; conditions: cumulative concentration response, relaxation as % of maximum response to VIP (10^-6 M=100%), three tissues pooled, linear regression
Method in brief: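 Male guinea pig tracheal rings under 1.5 g resting tension in Krebs at 37° C, 95% O2/5% CO2, isometric tension. Cumulative concentration-response curves; relaxation as % of response to 10^-6 M VIP added at end; three tissues pooled, EC50 by linear regression.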

guinea pigs = assay: In vivo bronchodilator activity by tracheal instillation against histamine challenge; set-up: species or system guinea pig; conditions: anesthetized male guinea pigs, inhibition of histamine (i.v.)-induced rise in tracheal pressure
Method in brief: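 Urethane-anaesthetised male Hartley guinea pigs (400-600 g) received compound in water by intratracheal instillation, then were paralysed, ventilated and challenged with histamine […] i.v. Tracheal pressure change gave % inhibition (≥3 animals/group); ED50 from log dose-response; duration as time until inhibition fell to 40%.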

| SMILES | pEC50 [1] | Bronchodilator activity of VIP analogs in guinea pigs, ED50 (guinea pigs) |
| --- | --- | --- |
| CCCC[C@H](NC(=O)[C@H](CCC(N)=O)NC(=O)[C@H](CCCCN)NC(=O)[C@H](CCCNC(=N)N)NC(=O)[C@H](CC(C)C)NC(=O)[C@H](CCCCN)NC(=O)[C@@H](NC(=O)[C@H](Cc1ccc(O)cc1)NC(=O)[C@H](CC(N)=O)NC(=O)[C@H](CC(=O)O)NC(=O)[C@@H](NC(=O)[C@H](Cc1ccccc1)NC(=O)[C@@H](NC(=O)[C@H](C)NC(=O)[C@H](CC(=O)O)NC(=O)[C@H](CO)NC(=O)[C@H](C)N(C)C(C)=O)C(C)C)[C@@H](C)O)[C@@H](C)O)C(=O)N[C@@H](C)C(=O)N[C@@H](C)C(=O)N[C@@H](CCCCN)C(=O)N[C@H]1CCCCNC(=O)C[C@@H](C(=O)N[C@@H](CC(C)C)C(=O)N[C@@H](CCCCN)C(=O)N[C@@H](CCCCN)C(N)=O)NC(=O)[C@H](CC(N)=O)NC(=O)[C@H](CC(C)C)NC(=O)[C@H](Cc2ccc(O)cc2)NC1=O [SEQ ID NO:39, Ac-[N-Me-Ala^1,Lys^12,Nle^17,Ala^19,Asp^25,Leu^26,Lys^27,28]-VIP cyclo (Lys^21 →Asp^25)] (Ac-[NMeA]SDAVFTDNYTKLRKQ[Nle]AAKKYLNDLKK-NH2; lactam 21-25) | 9.02 | 0.06 μg |
| CCCC[C@H](NC(=O)[C@H](CCC(N)=O)NC(=O)[C@H](CCCCN)NC(=O)[C@H](CCCNC(=N)N)NC(=O)[C@H](CC(C)C)NC(=O)[C@H](CCCCN)NC(=O)[C@@H](NC(=O)[C@H](Cc1ccc(O)cc1)NC(=O)[C@H](CC(N)=O)NC(=O)[C@H](CC(=O)O)NC(=O)[C@@H](NC(=O)[C@H](Cc1ccccc1)NC(=O)[C@@H](NC(=O)[C@H](C)NC(=O)[C@H](CC(=O)O)NC(=O)[C@H](CO)NC(=O)[C@H](Cc1c[nH]cn1)NC(C)=O)C(C)C)[C@@H](C)O)[C@@H](C)O)C(=O)N[C@@H](C)C(=O)N[C@H](C(=O)N[C@@H](CCCCN)C(=O)N[C@H]1CCCCNC(=O)C[C@@H](C(=O)N[C@H](C(=O)N[C@@H](CC(C)C)C(=O)N[C@H](C(N)=O)[C@@H](C)O)C(C)C)NC(=O)[C@H](CC(N)=O)NC(=O)[C@H](CC(C)C)NC(=O)[C@H](Cc2ccc(O)cc2)NC1=O)C(C)C [SEQ ID NO:28, Ac-[Lys^12,Nle^17,Asp^25,Val^26,Thr^28]-VIP cyclo (Lys^21 →Asp^25)] (Ac-HSDAVFTDNYTKLRKQ[Nle]AVKKYLNDVLT-NH2; lactam 21-25) | 8.51 | 1.2 μg |
| CCCC[C@H](NC(=O)[C@H](CCC(N)=O)NC(=O)[C@H](CCCCN)NC(=O)[C@H](CCCNC(=N)N)NC(=O)[C@H](CC(C)C)NC(=O)[C@H](CCCCN)NC(=O)[C@@H](NC(=O)[C@H](Cc1ccc2ccccc2c1)NC(=O)[C@H](CC(N)=O)NC(=O)[C@H](CC(=O)O)NC(=O)[C@@H](NC(=O)[C@H](Cc1ccc(F)cc1)NC(=O)[C@@H](NC(=O)[C@H](C)NC(=O)[C@H](CC(=O)O)NC(=O)[C@H](CO)NC(=O)[C@H](Cc1c[nH]cn1)NC(C)=O)C(C)C)[C@@H](C)O)[C@@H](C)O)C(=O)N[C@@H](C)C(=O)N[C@H](C(=O)N[C@@H](CCCCN)C(=O)N[C@H]1CCCCNC(=O)C[C@@H](C(=O)N[C@H](C(=O)N[C@@H](CC(C)C)C(=O)N[C@H](C(=O)NCC(=O)NCC(=O)N[C@@H](CCSC)C(N)=O)[C@@H](C)O)C(C)C)NC(=O)[C@H](CC(N)=O)NC(=O)[C@H](CC(C)C)NC(=O)[C@H](Cc2ccc(O)cc2)NC1=O)C(C)C [SEQ ID NO:30, Ac-[p-F-Phe^6,2-Nal^10,Lys^12,Nle^17,Asp^25,Val^26,Thr^28,Gly^29,30,Met^31]-VIP (1-31)-NH2 cyclo (Lys^21 →Asp^25)] (Ac-HSDAV[Phe(4-F)]TDN[2Nal]TKLRKQ[Nle]AVKKYLNDVLTGGM-NH2; lactam 21-25) | 8.89 | 0.90 μg |
| CCCC[C@H](NC(=O)[C@H](CCC(N)=O)NC(=O)[C@H](CCCCN)NC(=O)[C@H](CCCNC(=N)N)NC(=O)[C@H](CC(C)C)NC(=O)[C@H](CCCCN)NC(=O)[C@@H](NC(=O)[C@H](Cc1ccc(O)cc1)NC(=O)[C@H](CC(N)=O)NC(=O)[C@H](CC(=O)O)NC(=O)[C@@H](NC(=O)[C@H](Cc1ccc(F)cc1)NC(=O)[C@@H](NC(=O)[C@H](C)NC(=O)[C@H](CC(=O)O)NC(=O)[C@H](CO)NC(=O)[C@H](Cc1c[nH]cn1)NC(C)=O)C(C)C)[C@@H](C)O)[C@@H](C)O)C(=O)N[C@@H](C)C(=O)N[C@@H](C)C(=O)N[C@@H](CCCCN)C(=O)N[C@H]1CCCCNC(=O)C[C@@H](C(=O)N[C@H](C(=O)N[C@@H](CC(C)C)C(=O)N[C@H](C(N)=O)[C@@H](C)O)C(C)C)NC(=O)[C@H](CC(N)=O)NC(=O)[C@H](CC(C)C)NC(=O)[C@H](Cc2ccc(O)cc2)NC1=O [SEQ ID NO:49, Ac-[p-F-Phe^6,Lys^12,Nle^17,Ala^19,Asp^25,Val^26,Thr^28]-VIP cyclo (Lys^21 →Asp^25)] (Ac-HSDAV[Phe(4-F)]TDNYTKLRKQ[Nle]AAKKYLNDVLT-NH2; lactam 21-25) | 9.41 | 0.26 μg |

Now from value to compound, other results behind:

| pEC50 [1] | SMILES | Bronchodilator activity of VIP analogs in guinea pigs, ED50 (guinea pigs) |
| --- | --- | --- |
| 9.39 | CCCC[C@H](NC(=O)[C@H](CCC(N)=O)NC(=O)[C@H](CCCCN)NC(=O)[C@H](CCCNC(=N)N)NC(=O)[C@H](CC(C)C)NC(=O)[C@H](CCCCN)NC(=O)[C@@H](NC(=O)[C@H](Cc1ccc(OC)cc1)NC(=O)[C@H](CC(N)=O)NC(=O)[C@H](CCC(=O)O)NC(=O)[C@@H](NC(=O)[C@H](Cc1ccccc1)NC(=O)[C@@H](NC(=O)[C@H](C)NC(=O)[C@H](CC(=O)O)NC(=O)[C@H](CO)NC(=O)[C@H](Cc1c[nH]cn1)NC(C)=O)C(C)C)[C@@H](C)O)[C@@H](C)O)C(=O)N[C@@H](C)C(=O)N[C@@H](C)C(=O)N[C@@H](CCCCN)C(=O)N[C@H]1CCCCNC(=O)C[C@@H](C(=O)N[C@@H](CC(C)C)C(=O)N[C@@H](CCCCN)C(=O)N[C@@H](CCCCN)C(N)=O)NC(=O)[C@H](CC(N)=O)NC(=O)[C@H](CC(C)C)NC(=O)[C@H](Cc2ccc(O)cc2)NC1=O [SEQ ID NO:48, Ac-[Glu^8,O-Me-Tyr^10,Lys^12,Nle^17,Ala^19,Asp^25,Leu^26, Lys^27,28]-VIP cyclo (Lys^21 →Asp^25)] (Ac-HSDAVFTENY(Me)TKLRKQ[Nle]AAKKYLNDLKK-NH2; lactam 21-25) | 0.094 μg |
| 9.44 | CCCC[C@H](NC(=O)[C@H](CCC(N)=O)NC(=O)[C@H](CCCCN)NC(=O)[C@H](CCCNC(=N)N)NC(=O)[C@H](CC(C)C)NC(=O)[C@H](CCCCN)NC(=O)[C@@H](NC(=O)[C@H](Cc1ccc(O)cc1)NC(=O)[C@H](CC(N)=O)NC(=O)[C@H](CCC(=O)O)NC(=O)[C@@H](NC(=O)[C@H](Cc1ccccc1)NC(=O)[C@@H](NC(=O)[C@H](C)NC(=O)[C@H](CC(=O)O)NC(=O)[C@H](CO)NC(=O)[C@H](C)N(C)C(C)=O)C(C)C)[C@@H](C)O)[C@@H](C)O)C(=O)N[C@@H](C)C(=O)N[C@@H](C)C(=O)N[C@@H](CCCCN)C(=O)N[C@H]1CCCCNC(=O)C[C@@H](C(=O)N[C@@H](CC(C)C)C(=O)N[C@@H](CCCCN)C(=O)N[C@@H](CCCCN)C(N)=O)NC(=O)[C@H](CC(N)=O)NC(=O)[C@H](CC(C)C)NC(=O)[C@H](Cc2ccc(O)cc2)NC1=O [SEQ ID NO:44, Ac-[N-Me-Ala^1,Glu^8,Lys^12,Nle^17,Ala^19,Asp^25,Leu^26,Lys^27,28]-VIP cyclo (Lys^21 →Asp^25)] (Ac-[NMeA]SDAVFTENYTKLRKQ[Nle]AAKKYLNDLKK-NH2; lactam 21-25) | 0.097 μg |
| 9.59 | CCCC[C@H](NC(=O)[C@H](CCC(N)=O)NC(=O)[C@H](CCCCN)NC(=O)[C@H](CCCNC(=N)N)NC(=O)[C@H](CC(C)C)NC(=O)[C@H](CCCCN)NC(=O)[C@@H](NC(=O)[C@H](Cc1ccc(O)cc1)NC(=O)[C@H](CC(N)=O)NC(=O)[C@H](CCC(=O)O)NC(=O)[C@@H](NC(=O)[C@H](Cc1cccc2ccccc12)NC(=O)[C@@H](NC(=O)[C@H](C)NC(=O)[C@H](CC(=O)O)NC(=O)[C@H](CO)NC(=O)[C@H](Cc1c[nH]cn1)NC(C)=O)C(C)C)[C@@H](C)O)[C@@H](C)O)C(=O)N[C@@H](C)C(=O)N[C@@H](C)C(=O)N[C@@H](CCCCN)C(=O)N[C@H]1CCCCNC(=O)C[C@@H](C(=O)N[C@@H](CC(C)C)C(=O)N[C@@H](CCCCN)C(=O)N[C@@H](CCCCN)C(N)=O)NC(=O)[C@H](CC(N)=O)NC(=O)[C@H](CC(C)C)NC(=O)[C@H](Cc2ccc(O)cc2)NC1=O [SEQ ID NO:46, Ac-[1-Nal^6,Glu^8,Lys^12,Nle^17,Ala^19,Asp^25,Leu^26,Lys^27,28]-VIP cyclo (Lys^21 →Asp^25)] (Ac-HSDAV[1Nal]TENYTKLRKQ[Nle]AAKKYLNDLKK-NH2; lactam 21-25) | 0.036 μg |
| 9.26 | CCCC[C@H](NC(=O)[C@H](CCC(N)=O)NC(=O)[C@H](CCCCN)NC(=O)[C@H](CCCNC(=N)N)NC(=O)[C@H](CC(C)C)NC(=O)[C@H](CCCCN)NC(=O)[C@@H](NC(=O)[C@H](Cc1ccc(O)cc1)NC(=O)[C@H](CC(N)=O)NC(=O)[C@H](CCC(=O)O)NC(=O)[C@@H](NC(=O)[C@H](Cc1ccccc1)NC(=O)[C@@H](NC(=O)[C@H](C)NC(=O)[C@H](CC(=O)O)NC(=O)[C@H](C)NC(=O)[C@H](Cc1c[nH]cn1)NC(C)=O)C(C)C)[C@@H](C)O)[C@@H](C)O)C(=O)N[C@@H](C)C(=O)N[C@@H](C)C(=O)N[C@@H](CCCCN)C(=O)N[C@H]1CCCCNC(=O)C[C@@H](C(=O)N[C@@H](CC(C)C)C(=O)N[C@@H](CCCCN)C(=O)N[C@@H](CCCCN)C(=O)N[C@@H](C)C(=O)N[C@@H](C)C(=O)N[C@@H](C)C(N)=O)NC(=O)[C@H](CC(N)=O)NC(=O)[C@H](CC(C)C)NC(=O)[C@H](Cc2ccc(O)cc2)NC1=O [SEQ ID NO:43, Ac-[Ala^2,Glu^8,Lys^12,Nle^17,Ala^19,Asp^25,Leu^26,Lys^27,28,Ala^29-31]-VIP cyclo (Lys^21 →Asp^25)] (Ac-HADAVFTENYTKLRKQ[Nle]AAKKYLNDLKKAAA-NH2; lactam 21-25) | 0.14 μg |
